Experimental data from patent US8445492B2, “Method for inhibiting growth of cancer cells and cell telomere and diseases of cell proliferation by using heteroannelated anthraquinone derivative compounds” (National Defense Medical Center, priority 2008, dated 2013).

Legend:
Experiment in all cases: NCI DTP in-vitro dose response, Renal Cancer
Format in all cases: cell-based
786-0 = tested on: 786-0
A498 = tested on: A498
ACHN = conditions: ACHN
CAKI-1 = tested on: CAKI-1
SN12C = conditions: SN12C
TK-10 = tested on: TK-10
UO-31 = tested on: UO-31
RXF 393 = tested on: RXF 393
[1] = read-out: LC50 (the source's name)

O=C1c2ccccc2C(=O)c2c1ccc1nccnc21 [TABLE 5-7]
TGI (786-0; 786-0): >1.00E−4
Percent Growth (786-0; 786-0, Log10 Concentration −4.0): 15%
Percent Growth (786-0; 786-0, Log10 Concentration −5.0): 47%
Percent Growth (786-0; 786-0, Log10 Concentration −6.0): 104%
Percent Growth (786-0; 786-0, Log10 Concentration −7.0): 101%
Percent Growth (786-0; 786-0, Log10 Concentration −8.0): 98%
GI50 (786-0; 786-0, read-out: GI50): 8.87 µM
CC50 (786-0; 786-0, read-out: LC50 (the source's name)): > 100 µM
TGI (A498; A498): 5.03E−5
Percent Growth (A498; A498, Log10 Concentration −4.0): −21%
Percent Growth (A498; A498, Log10 Concentration −5.0): 49%
Percent Growth (A498; A498, Log10 Concentration −6.0): 89%
Percent Growth (A498; A498, Log10 Concentration −7.0): 85%
Percent Growth (A498; A498, Log10 Concentration −8.0): 93%
GI50 (A498; A498, read-out: GI50): 9.31 µM
CC50 (A498; A498, read-out: LC50 (the source's name)): > 100 µM
TGI (ACHN): >1.00E−4
Percent Growth (ACHN; Log10 Concentration −4.0): 2%
Percent Growth (ACHN; Log10 Concentration −5.0): 31%
Percent Growth (ACHN; Log10 Concentration −6.0): 77%
Percent Growth (ACHN; Log10 Concentration −7.0): 87%
Percent Growth (ACHN; Log10 Concentration −8.0): 98%
GI50 (ACHN; read-out: GI50): 3.85 µM
CC50 (ACHN; [1]): > 100 µM
TGI (CAKI-1; CAKI-1): >1.00E−4
Percent Growth (CAKI-1; CAKI-1, Log10 Concentration −4.0): 4%
Percent Growth (CAKI-1; CAKI-1, Log10 Concentration −5.0): 39%
Percent Growth (CAKI-1; CAKI-1, Log10 Concentration −6.0): 87%
Percent Growth (CAKI-1; CAKI-1, Log10 Concentration −7.0): 89%
Percent Growth (CAKI-1; CAKI-1, Log10 Concentration −8.0): 94%
GI50 (CAKI-1; CAKI-1, read-out: GI50): 5.83 µM
CC50 (CAKI-1; CAKI-1, read-out: LC50 (the source's name)): > 100 µM
TGI (SN12C): 9.27E−5
Percent Growth (SN12C; Log10 Concentration −4.0): −2%
Percent Growth (SN12C; Log10 Concentration −5.0): 57%
Percent Growth (SN12C; Log10 Concentration −6.0): 78%
Percent Growth (SN12C; Log10 Concentration −7.0): 71%
Percent Growth (SN12C; Log10 Concentration −8.0): 87%
GI50 (SN12C; read-out: GI50): 13.2 µM
CC50 (SN12C; [1]): > 100 µM
TGI (TK-10; TK-10): >1.00E−4
Percent Growth (TK-10; TK-10, Log10 Concentration −4.0): 2%
Percent Growth (TK-10; TK-10, Log10 Concentration −5.0): 36%
Percent Growth (TK-10; TK-10, Log10 Concentration −6.0): 83%
Percent Growth (TK-10; TK-10, Log10 Concentration −7.0): 85%
Percent Growth (TK-10; TK-10, Log10 Concentration −8.0): 102%
GI50 (TK-10; TK-10, read-out: GI50): 5 µM
CC50 (TK-10; TK-10, read-out: LC50 (the source's name)): > 100 µM
TGI (UO-31; UO-31): 8.59E−5
Percent Growth (UO-31; UO-31, Log10 Concentration −4.0): −2%
Percent Growth (UO-31; UO-31, Log10 Concentration −5.0): 25%
Percent Growth (UO-31; UO-31, Log10 Concentration −6.0): 73%
Percent Growth (UO-31; UO-31, Log10 Concentration −7.0): 73%
Percent Growth (UO-31; UO-31, Log10 Concentration −8.0): 80%
GI50 (UO-31; UO-31, read-out: GI50): 3.02 µM
CC50 (UO-31; UO-31, read-out: LC50 (the source's name)): > 100 µM
GI50 (RXF 393; RXF 393): 6.43 µM
TGI (RXF 393; RXF 393): >1.00E−4
Percent Growth (RXF 393; RXF 393, Log10 Concentration −4.0): 7%
Percent Growth (RXF 393; RXF 393, Log10 Concentration −5.0): 43%
Percent Growth (RXF 393; RXF 393, Log10 Concentration −6.0): 81%
Percent Growth (RXF 393; RXF 393, Log10 Concentration −7.0): 93%
Percent Growth (RXF 393; RXF 393, Log10 Concentration −8.0): 97%
CC50 (RXF 393; RXF 393, read-out: LC50 (the source's name)): > 100 µM
